SMILES strings stand for the structures.

For assay [1], the target named is T1, Glucose-dependent insulinotropic receptor (Homo sapiens) (UniProt Q8TDV5).
T1 sequence (whole entry): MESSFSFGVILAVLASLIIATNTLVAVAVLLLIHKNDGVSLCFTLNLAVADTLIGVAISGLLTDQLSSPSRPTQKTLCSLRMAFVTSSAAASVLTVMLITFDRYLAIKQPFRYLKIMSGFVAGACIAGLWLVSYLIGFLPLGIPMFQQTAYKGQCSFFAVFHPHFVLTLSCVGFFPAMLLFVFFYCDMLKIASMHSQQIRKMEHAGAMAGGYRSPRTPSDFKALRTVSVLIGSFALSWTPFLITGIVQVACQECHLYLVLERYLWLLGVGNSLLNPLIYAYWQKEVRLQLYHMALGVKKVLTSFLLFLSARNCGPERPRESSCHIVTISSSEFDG
Description: Intrinsic activity at human GPR119 expressed in MIN6 cells assessed as intracellular cAMP level after 45 mins by ALPHAscreen cAMP assay relative to N-(4-methanesulfonylphenyl)-5-nitro-6-[4-(phenylsulfanyl)piperidin-1-yl]pyrimidin-4-amine. The class given is functional, cell-based. Background: cAMP levels reflect the balance of adenylyl cyclase and phosphodiesterase activity.

The target of assay [2] is T2, Glucose-dependent insulinotropic receptor (Homo sapiens, UniProt Q8TDV5).
T2 sequence (Q8TDV5 whole entry): T1 sequence (whole entry)
Description: Agonist activity at human GPR119 expressed in MIN6 cells assessed as intracellular cAMP level after 45 mins by ALPHAscreen cAMP assay. The class given is functional, cell-based.

For orientation: EC50 means the midpoint of the concentration-response curve. Consider `N#Cc1cc(F)c(NC(=O)C2=NOC3(CCN(c4nc(-c5ccccc5)no4)CC3)C2)cc1F`, for which the Intrinsic activity in assay [1] came out at 173%. The EC50 in assay [2] amounted to 30 nM.
On the same counts, the results for `CC(C)(C)OC(=O)N1CCC2(CCN(C(=O)Nc3ccc(S(C)(=O)=O)cc3Br)CC2)CC1` are 165% and 800 nM.
On the same counts, the results for `C[S+]([O-])c1cc(F)c(NC(=O)C2=NOC3(CCN(c4nc(-c5ccccc5)no4)CC3)C2)cc1F` (stereo not drawn) are 160% and 21 nM.
On the same counts, the results for `CC(C)(C)OC(=O)N1CCC2(CC1)CC(C(=O)Nc1cc(F)c(C#N)cc1F)=NO2` are 170% and 93 nM.

(Values after ChEMBL document CHEMBL2177041, “Identification of new potent GPR119 agonists by combining virtual screening and combinatorial chemistry” (J Med Chem, 2012).)
